One data set concerns the target T1, C-X-C chemokine receptor type 2 (Homo sapiens, UniProt P25025). Note: in other assays of this panel Not Active means under 50% inhibition at 10 µM.
T1 sequence (P25025 whole entry): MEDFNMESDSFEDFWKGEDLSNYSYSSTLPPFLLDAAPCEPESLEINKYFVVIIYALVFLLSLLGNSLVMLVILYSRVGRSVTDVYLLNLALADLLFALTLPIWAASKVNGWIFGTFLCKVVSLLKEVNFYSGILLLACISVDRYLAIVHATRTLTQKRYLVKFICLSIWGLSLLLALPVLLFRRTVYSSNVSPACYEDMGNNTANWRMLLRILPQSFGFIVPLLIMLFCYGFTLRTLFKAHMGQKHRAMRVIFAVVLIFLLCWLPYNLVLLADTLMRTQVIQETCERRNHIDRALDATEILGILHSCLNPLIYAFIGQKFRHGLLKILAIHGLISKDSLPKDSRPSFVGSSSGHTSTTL
Assay: not given
In kind it is cell membranes, Membrane. To be noted: cho-k1.
Regarding `Oc1ccc(OCc2ccccc2)cc1` [MONOBENZONE], the IC50 entry is listed as “Not Active”.

Take `CC(C)(Oc1ccc(C2CCCc3ccccc32)cc1)C(=O)O` (stereo unspecified) [NAFENOPIN]: the IC50 entry is on record as “Not Active”.

Take `CC(C)[C@H]1CC[C@H](C(=O)N[C@H](Cc2ccccc2)C(=O)O)CC1` [NATEGLINIDE]: the IC50 entry is “Not Active”.

Tested on in another data set: not listed separately
The data set can be described thus: DRUGMATRIX: GABAA, Chloride Channel, TBOB radioligand binding (ligand: [3H] TBOB). Type of data set: cell membranes, Rattus norvegicus, Wistar, Cerebral cortex, Membrane. To be noted: Not Active = under 50% inhibition at 10 µM.
For the compound `Oc1ccc(OCc2ccccc2)cc1` [MONOBENZONE], the IC50 result is “Not Active” and the Ki result is recorded as “Not Active”.

Take `CC(C)(Oc1ccc(C2CCCc3ccccc32)cc1)C(=O)O` (stereo unspecified) [NAFENOPIN]: the IC50 result is recorded as “Not Active” and the Ki result is listed as “Not Active”.

Consider `CC(C)[C@H]1CC[C@H](C(=O)N[C@H](Cc2ccccc2)C(=O)O)CC1` [NATEGLINIDE], for which the IC50 result is on record as “Not Active” and the Ki result was “Not Active”.

A further data set deals with Insulin receptor (Rattus norvegicus, UniProt P15127).
Sequence of Insulin receptor (P15127 27-759 limits assumed): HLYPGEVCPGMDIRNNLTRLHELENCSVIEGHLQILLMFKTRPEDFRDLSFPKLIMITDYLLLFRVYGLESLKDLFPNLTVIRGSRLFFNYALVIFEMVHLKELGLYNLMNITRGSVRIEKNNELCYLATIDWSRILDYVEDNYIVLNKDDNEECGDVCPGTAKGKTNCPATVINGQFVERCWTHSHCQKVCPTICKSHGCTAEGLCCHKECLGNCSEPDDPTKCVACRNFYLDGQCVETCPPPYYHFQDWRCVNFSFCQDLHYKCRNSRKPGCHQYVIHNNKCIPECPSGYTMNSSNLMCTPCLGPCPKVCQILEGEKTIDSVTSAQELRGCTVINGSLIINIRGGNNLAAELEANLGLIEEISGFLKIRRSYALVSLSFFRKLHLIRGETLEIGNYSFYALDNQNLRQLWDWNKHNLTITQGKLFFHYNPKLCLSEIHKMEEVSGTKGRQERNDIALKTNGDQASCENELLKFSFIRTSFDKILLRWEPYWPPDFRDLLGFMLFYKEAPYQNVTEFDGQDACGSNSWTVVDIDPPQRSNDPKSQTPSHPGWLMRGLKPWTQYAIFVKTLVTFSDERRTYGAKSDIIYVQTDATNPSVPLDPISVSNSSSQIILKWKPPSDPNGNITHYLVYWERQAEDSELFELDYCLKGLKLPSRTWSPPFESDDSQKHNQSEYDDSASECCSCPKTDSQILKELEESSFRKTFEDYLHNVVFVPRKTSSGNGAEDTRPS
Sequence of Insulin receptor (P15127 764-1383 limits assumed): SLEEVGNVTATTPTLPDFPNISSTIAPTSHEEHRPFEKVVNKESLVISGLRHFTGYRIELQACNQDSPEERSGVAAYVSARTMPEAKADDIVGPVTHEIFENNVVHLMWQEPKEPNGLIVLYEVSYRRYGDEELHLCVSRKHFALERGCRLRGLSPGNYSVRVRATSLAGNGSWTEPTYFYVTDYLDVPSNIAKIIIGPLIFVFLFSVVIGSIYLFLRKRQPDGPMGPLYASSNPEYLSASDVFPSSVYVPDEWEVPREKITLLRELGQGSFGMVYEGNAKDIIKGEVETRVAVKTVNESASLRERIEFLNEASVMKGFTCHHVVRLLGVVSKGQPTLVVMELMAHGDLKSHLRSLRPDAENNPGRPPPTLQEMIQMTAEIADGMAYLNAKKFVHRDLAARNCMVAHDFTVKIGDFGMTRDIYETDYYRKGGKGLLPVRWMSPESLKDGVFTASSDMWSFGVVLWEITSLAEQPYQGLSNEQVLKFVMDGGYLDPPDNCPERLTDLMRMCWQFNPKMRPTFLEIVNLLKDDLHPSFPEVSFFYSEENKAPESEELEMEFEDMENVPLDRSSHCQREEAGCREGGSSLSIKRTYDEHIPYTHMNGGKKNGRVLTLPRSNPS
Assay: not given
Type of data set: cell membranes, Wistar, Liver, Membrane.
Details: not given
As to `Oc1ccc(OCc2ccccc2)cc1` [MONOBENZONE], the IC50 entry is on record as “Not Active”.

For the compound `CC(C)(Oc1ccc(C2CCCc3ccccc32)cc1)C(=O)O` (stereo unspecified) [NAFENOPIN], the IC50 result is on record as “Not Active”.

For `CC(C)[C@H]1CC[C@H](C(=O)N[C@H](Cc2ccccc2)C(=O)O)CC1` [NATEGLINIDE], the IC50 result is reported as “Not Active”.

In another data set the target is Melanocortin receptor 4 (Homo sapiens, UniProt P32245). Note: in other assays of this panel Not Active means under 50% inhibition at 10 µM.
Sequence of Melanocortin receptor 4 (P32245 whole entry): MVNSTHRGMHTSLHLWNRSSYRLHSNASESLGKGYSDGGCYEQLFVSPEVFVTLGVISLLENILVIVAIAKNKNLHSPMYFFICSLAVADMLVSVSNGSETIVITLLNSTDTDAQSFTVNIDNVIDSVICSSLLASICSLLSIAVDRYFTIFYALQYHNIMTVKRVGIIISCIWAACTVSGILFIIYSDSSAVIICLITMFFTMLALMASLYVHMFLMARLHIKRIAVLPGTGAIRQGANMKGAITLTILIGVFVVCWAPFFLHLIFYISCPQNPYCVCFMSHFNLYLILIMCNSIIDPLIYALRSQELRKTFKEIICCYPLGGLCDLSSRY
Assay: not given
Type of data set: cell membranes, Membrane. To be noted: hek293.
In the case of `Oc1ccc(OCc2ccccc2)cc1` [MONOBENZONE], the IC50 entry was “Not Active”.

For the compound `CC(C)(Oc1ccc(C2CCCc3ccccc32)cc1)C(=O)O` (stereo unspecified) [NAFENOPIN], the IC50 entry was “Not Active”.

Regarding `CC(C)[C@H]1CC[C@H](C(=O)N[C@H](Cc2ccccc2)C(=O)O)CC1` [NATEGLINIDE], the IC50 entry was “Not Active”.

Tested on in the next data set: not listed separately
The data set can be described thus: DRUGMATRIX: Phosphodiesterase PDE3 enzyme inhibition (substrate: [3H]cAMP + cAMP). Type of data set: tissue-based, Homo sapiens. The settings on record: platelet; Not Active = under 50% inhibition at 10 µM.
As to `Oc1ccc(OCc2ccccc2)cc1` [MONOBENZONE], the IC50 entry is recorded as “Not Active” and the Ki result is reported as “Not Active”.

Take `CC(C)(Oc1ccc(C2CCCc3ccccc32)cc1)C(=O)O` (stereo unspecified) [NAFENOPIN]: the IC50 entry was “Not Active” and the Ki result is given as “Not Active”.

Turning to `CC(C)[C@H]1CC[C@H](C(=O)N[C@H](Cc2ccccc2)C(=O)O)CC1` [NATEGLINIDE], the IC50 result was “Not Active” and the Ki result is recorded as “Not Active”.

In the next data set the target is Receptor tyrosine-protein kinase erbB-2 (Homo sapiens, UniProt P04626). The data set can be described thus: biochemical. In kind it is cell-based, Insect cells. The settings on record: insect cells.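 Note: inhibition of HER2 kinase enzyme activity, measured with Poly(Glu:Tyr) as the phosphorylation substrate; in other assays of this panel Not Active means under 50% inhibition at 10 µM.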
Sequence of Receptor tyrosine-protein kinase erbB-2 (P04626 whole entry): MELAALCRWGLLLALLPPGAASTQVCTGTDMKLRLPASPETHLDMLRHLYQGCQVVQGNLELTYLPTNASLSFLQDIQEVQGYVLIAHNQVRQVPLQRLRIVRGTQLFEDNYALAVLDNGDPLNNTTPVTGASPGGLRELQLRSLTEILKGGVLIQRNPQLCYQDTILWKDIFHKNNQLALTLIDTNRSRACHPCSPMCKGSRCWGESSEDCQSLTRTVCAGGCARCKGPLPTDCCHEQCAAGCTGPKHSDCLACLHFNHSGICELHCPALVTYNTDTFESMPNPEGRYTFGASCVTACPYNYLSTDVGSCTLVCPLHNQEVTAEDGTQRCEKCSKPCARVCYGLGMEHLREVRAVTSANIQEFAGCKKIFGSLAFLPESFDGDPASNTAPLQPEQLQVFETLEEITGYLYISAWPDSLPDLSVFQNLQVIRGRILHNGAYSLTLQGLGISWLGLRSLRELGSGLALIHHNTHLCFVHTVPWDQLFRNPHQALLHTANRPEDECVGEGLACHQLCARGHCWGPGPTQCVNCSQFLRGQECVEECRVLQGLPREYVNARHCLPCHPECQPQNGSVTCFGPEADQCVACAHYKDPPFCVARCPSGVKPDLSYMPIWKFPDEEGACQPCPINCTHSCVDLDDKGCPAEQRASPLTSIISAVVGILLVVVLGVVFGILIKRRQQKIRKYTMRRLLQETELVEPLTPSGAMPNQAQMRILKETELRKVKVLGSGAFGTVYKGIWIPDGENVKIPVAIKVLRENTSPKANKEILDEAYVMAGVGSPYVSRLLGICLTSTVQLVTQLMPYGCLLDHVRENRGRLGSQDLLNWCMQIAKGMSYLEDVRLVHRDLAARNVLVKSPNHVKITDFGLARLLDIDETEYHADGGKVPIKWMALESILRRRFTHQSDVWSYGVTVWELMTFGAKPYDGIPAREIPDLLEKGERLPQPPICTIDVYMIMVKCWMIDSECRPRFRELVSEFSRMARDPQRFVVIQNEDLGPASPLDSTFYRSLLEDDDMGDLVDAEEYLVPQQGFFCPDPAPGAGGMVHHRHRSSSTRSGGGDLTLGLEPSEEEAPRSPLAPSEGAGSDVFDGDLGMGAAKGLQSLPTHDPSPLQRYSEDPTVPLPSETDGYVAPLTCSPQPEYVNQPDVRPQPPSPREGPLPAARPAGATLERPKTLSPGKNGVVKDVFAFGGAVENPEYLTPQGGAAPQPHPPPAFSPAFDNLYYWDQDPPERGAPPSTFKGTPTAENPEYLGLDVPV
For the compound `Oc1ccc(OCc2ccccc2)cc1` [MONOBENZONE], the IC50 result is recorded as “Not Active”.

As for `CC(C)(Oc1ccc(C2CCCc3ccccc32)cc1)C(=O)O` (stereo unspecified) [NAFENOPIN], the IC50 entry is recorded as “Not Active”.

As to `CC(C)[C@H]1CC[C@H](C(=O)N[C@H](Cc2ccccc2)C(=O)O)CC1` [NATEGLINIDE], the IC50 result is given as “Not Active”.

Another data set has as its target T2, Receptor-type tyrosine-protein phosphatase C (Homo sapiens, UniProt P08575).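 Note: inhibition of CD45 enzyme activity measured using DiFMUP as substrate; in other assays of this panel Not Active means under 50% inhibition at 10 µM.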
T2 sequence (P08575 whole entry): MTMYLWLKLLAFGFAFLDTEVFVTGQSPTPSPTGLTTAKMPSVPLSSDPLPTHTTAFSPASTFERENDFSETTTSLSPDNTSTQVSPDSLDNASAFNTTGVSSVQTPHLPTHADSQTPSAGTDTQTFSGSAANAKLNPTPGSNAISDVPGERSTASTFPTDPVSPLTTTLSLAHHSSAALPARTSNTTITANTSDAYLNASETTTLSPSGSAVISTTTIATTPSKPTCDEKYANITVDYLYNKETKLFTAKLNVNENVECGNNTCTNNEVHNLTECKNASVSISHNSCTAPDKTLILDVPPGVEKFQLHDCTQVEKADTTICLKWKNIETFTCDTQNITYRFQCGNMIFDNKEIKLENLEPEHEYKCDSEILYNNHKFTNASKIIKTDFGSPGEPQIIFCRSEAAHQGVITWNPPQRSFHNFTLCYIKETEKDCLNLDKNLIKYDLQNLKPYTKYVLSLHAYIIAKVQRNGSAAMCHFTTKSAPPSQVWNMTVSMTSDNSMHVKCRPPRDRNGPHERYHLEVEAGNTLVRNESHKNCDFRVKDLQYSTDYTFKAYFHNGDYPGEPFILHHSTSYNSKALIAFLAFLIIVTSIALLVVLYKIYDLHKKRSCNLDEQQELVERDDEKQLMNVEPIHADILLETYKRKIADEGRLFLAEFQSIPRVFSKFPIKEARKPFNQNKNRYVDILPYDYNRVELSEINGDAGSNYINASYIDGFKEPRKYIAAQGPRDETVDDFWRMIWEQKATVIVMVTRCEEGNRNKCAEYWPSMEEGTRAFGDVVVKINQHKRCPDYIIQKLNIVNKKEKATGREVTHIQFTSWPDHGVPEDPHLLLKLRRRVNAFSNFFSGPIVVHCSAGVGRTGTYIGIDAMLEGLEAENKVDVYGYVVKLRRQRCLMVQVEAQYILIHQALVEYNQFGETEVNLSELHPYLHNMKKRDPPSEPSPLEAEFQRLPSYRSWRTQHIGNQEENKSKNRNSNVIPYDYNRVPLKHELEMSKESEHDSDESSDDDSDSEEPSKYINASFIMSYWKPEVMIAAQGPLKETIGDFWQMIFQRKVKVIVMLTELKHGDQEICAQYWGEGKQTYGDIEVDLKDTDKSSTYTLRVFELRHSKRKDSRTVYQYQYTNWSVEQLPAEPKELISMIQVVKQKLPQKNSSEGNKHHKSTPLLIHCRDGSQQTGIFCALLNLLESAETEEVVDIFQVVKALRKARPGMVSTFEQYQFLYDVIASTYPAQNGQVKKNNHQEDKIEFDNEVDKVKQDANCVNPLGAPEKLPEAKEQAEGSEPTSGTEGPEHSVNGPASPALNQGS
Assay: not given
Details: not given
On the set-up: species or system Escherichia coli.
For the compound `Oc1ccc(OCc2ccccc2)cc1` [MONOBENZONE], the IC50 entry is “Not Active”.

For the compound `CC(C)(Oc1ccc(C2CCCc3ccccc32)cc1)C(=O)O` (stereo unspecified) [NAFENOPIN], the IC50 result was “Not Active”.

For `CC(C)[C@H]1CC[C@H](C(=O)N[C@H](Cc2ccccc2)C(=O)O)CC1` [NATEGLINIDE], the IC50 entry is on record as “Not Active”.

In the next data set the target is Cytochrome P450 2E1 (Homo sapiens, UniProt P05181). Note: in other assays of this panel Not Active means under 50% inhibition at 10 µM.
Sequence of Cytochrome P450 2E1 (P05181 whole entry): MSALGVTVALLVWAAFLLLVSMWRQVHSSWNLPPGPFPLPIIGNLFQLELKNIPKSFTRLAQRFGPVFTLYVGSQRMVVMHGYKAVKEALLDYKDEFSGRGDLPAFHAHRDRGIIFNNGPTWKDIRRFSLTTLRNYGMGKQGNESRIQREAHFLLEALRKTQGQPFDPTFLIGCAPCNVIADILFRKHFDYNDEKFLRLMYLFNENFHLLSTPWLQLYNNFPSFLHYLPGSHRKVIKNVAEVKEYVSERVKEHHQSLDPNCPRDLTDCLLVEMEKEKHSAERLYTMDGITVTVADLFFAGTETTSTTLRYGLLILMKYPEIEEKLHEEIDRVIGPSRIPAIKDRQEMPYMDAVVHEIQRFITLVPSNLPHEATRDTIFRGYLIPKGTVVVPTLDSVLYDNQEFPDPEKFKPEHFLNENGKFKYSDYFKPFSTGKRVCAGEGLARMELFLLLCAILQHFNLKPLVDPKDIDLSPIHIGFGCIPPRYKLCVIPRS
Assay: not given
To be noted: bti-tn-5b1-4.
As to `Oc1ccc(OCc2ccccc2)cc1` [MONOBENZONE], the IC50 entry is listed as “Not Active” and the Ki result is reported as “Not Active”.

As to `CC(C)(Oc1ccc(C2CCCc3ccccc32)cc1)C(=O)O` (stereo unspecified) [NAFENOPIN], the IC50 entry is “Not Active” and the Ki entry was “Not Active”.

For the compound `CC(C)[C@H]1CC[C@H](C(=O)N[C@H](Cc2ccccc2)C(=O)O)CC1` [NATEGLINIDE], the IC50 entry is “Not Active” and the Ki entry is “Not Active”.

For another data set, the target named is T3, Estrogen receptor (Homo sapiens, UniProt P03372). Note: in other assays of this panel Not Active means under 50% inhibition at 10 µM.
T3 sequence (P03372 whole entry): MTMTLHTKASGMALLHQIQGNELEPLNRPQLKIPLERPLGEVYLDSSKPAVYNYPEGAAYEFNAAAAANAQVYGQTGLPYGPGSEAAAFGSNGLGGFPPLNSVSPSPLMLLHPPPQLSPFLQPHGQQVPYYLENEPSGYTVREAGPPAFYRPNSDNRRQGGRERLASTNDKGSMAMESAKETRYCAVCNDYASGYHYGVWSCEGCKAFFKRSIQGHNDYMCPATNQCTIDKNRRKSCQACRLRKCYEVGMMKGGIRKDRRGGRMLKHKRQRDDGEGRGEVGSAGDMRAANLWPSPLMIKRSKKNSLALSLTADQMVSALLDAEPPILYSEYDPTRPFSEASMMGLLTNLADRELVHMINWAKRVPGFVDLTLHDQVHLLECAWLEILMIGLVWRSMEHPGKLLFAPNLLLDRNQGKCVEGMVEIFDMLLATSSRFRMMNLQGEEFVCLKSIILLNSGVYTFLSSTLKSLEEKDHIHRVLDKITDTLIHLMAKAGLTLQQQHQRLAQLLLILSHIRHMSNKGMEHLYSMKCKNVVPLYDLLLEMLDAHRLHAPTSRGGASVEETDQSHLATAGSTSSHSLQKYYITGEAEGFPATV
Assay: not given
The settings on record: sf9.
On to `Oc1ccc(OCc2ccccc2)cc1` [MONOBENZONE], for which the IC50 entry was “Not Active”.

Turning to `CC(C)(Oc1ccc(C2CCCc3ccccc32)cc1)C(=O)O` (stereo unspecified) [NAFENOPIN], the IC50 result is “Not Active”.

For `CC(C)[C@H]1CC[C@H](C(=O)N[C@H](Cc2ccccc2)C(=O)O)CC1` [NATEGLINIDE], the IC50 entry was “Not Active”.

The record behind these values is ChEMBL document CHEMBL1909046, “DrugMatrix in vitro pharmacology data”.
